ChEMBL document CHEMBL4616615, “Screening for tyrosinase inhibitors from actinomycetes; identification of trichostatin derivatives from Streptomyces sp. CA-129531 and scale up production in bioreactor” (Bioorg Med Chem Lett, 2020)

What was measured:
[1] = tested on: MIA PaCa-2; test: cells; conditions: Homo sapiens
Description: Cytotoxicity against human MIAPaCa2 cells assessed as reduction in cell viability

[2] = tested on: A549; test: cells; conditions: Homo sapiens
Description: Cytotoxicity against human A549 cells assessed as reduction in cell viability

[3] = tested on: HepG2; test: cells; conditions: Homo sapiens
Description: Cytotoxicity against human HepG2 cells assessed as reduction in cell viability

[4] = tested on: A2058; test: Cytotoxicity against human A2058 cells assessed as reduction in cell viability; format: cell-based
[5] = tested on: MCF7; test: cells; conditions: Homo sapiens
[6] = biological target: T1, Mushroom tyrosinase (Agaricus bisporus, UniProt O42713+Q00024+C7FF04+C7FF05); test: Inhibition of mushroom tyrosinase using L-DOPA as substrate
[7] = biological target: T1, Mushroom tyrosinase; test: Mixed-type of inhibition of mushroom tyrosinase using varying level of L-DOPA as substrate by Dixon plot analysis

SMILES	IC50 [1]	IC50 [2]	IC50 [3]	IC50 [5]	IC50 [6]	Ki [7]	IC50 [4]
COc1cccc2c1C(=O)c1c(O)c3c(c(O)c1C2=O)C[C@@](O)(C(=O)CO)C[C@@H]3O[C@H]1C[C@H](N)[C@H](O)[C@H](C)O1 [DOXORUBICIN]	1.02 µM	3.76 µM	< 0.11 µM	–	–	–	< 0.11 µM
CC(/C=C/C(=O)O)=C\[C@H](C)C(=O)c1ccc(N(C)C)cc1	> 50 µM	> 50 µM	> 50 µM	> 50 µM	–	–	> 50 µM
CC(/C=C/C(=O)O)=C\[C@@](C)(O)C(=O)c1ccc(N(C)C)cc1	> 50 µM	> 50 µM	> 50 µM	> 50 µM	–	–	> 50 µM
CC(/C=C/C(=O)N[C@@H](CCC(N)=O)C(=O)O)=C\[C@@H](C)C(=O)c1ccc(N(C)C)cc1	> 50 µM	> 50 µM	> 50 µM	> 50 µM	–	–	> 50 µM
CC(/C=C/C(=O)NO[C@@H]1O[C@H](CO)[C@@H](O)[C@H](O)[C@H]1O)=C\[C@@H](C)C(=O)c1ccc(N(C)C)cc1	37.9 µM	25 µM	17.8 µM	18.9 µM	174.33 µM	–	37.3 µM

Continued, in another order:

IC50 [1]	IC50 [2]	IC50 [3]	IC50 [5]	IC50 [6]	Ki [7]	SMILES	IC50 [4]
36.7 µM	> 50 µM	13.1 µM	18.4 µM	161.18 µM	–	CNC(=O)/C=C/C(C)=C/[C@@H](C)C(=O)c1ccc(N(C)C)cc1	> 50 µM
9.46 µM	8.3 µM	3.19 µM	2.74 µM	19.18 µM	–	CC(/C=C/C(N)=O)=C\[C@@H](C)C(=O)c1ccc(N(C)C)cc1	0.64 µM
0.9 µM	1.31 µM	0.38 µM	0.3 µM	2.18 µM	6.1 µM	CC(/C=C/C(=O)NO)=C\[C@@H](C)C(=O)c1ccc(N(C)C)cc1 [TRICHOSTATIN]	0.43 µM
